Data published in patent publication US20190374563A1, “TREATMENT OF KLEBSIELLA PNEUMONIAE INFECTIONS WITH ANTIBACTERIAL AMINOGLYCOSIDE COMPOUNDS” (Achaogen, Inc., priority 2009, published 2019).
In brackets after ≈: the same amount, converted by molar mass. Like-named read-outs stand apart in the source and are kept apart here.

How the values were obtained:
[1] = test system: K. pneumoniae producing KPC (n = 25); experiment: MIC by microdilution, clinical isolates; assay type: cell-based; conditions: for S (%), susceptible isolates: CLSI criteria, tigecycline US FDA criteria
Method: (§1) The in vitro activity of representative antibacterial aminoglycoside compounds against a collection of 102 K. pneumoniae clinical isolates collected from January 2006 to October 2007 at the University of Pittsburgh Medical Center, and three Cleveland institutions including University Hospitals Case Medical Center, the Cleveland Clinic, and the Louis Stokes Department of Veterans Affairs Medical Center was analyzed. The 102 K. pneumoniae isolates were selected based on a multidrug-resistant (MDR) phenotype (i.e., resistance to >3 antibiotic classes). Twenty-five isolates were KPC carbapenemase producing (KPC-Kp), and were part of a previous study where the β-lactamase background and clonality were characterized (see Endimiani, A., A. M. Hujer, F. Perez, C. R. Bethel, K. M. Hujer, J. Kroeger, M. Oethinger, D. L. Paterson, M. D. Adams, M. R. Jacobs, D. J. Diekema, G. S. Hall, S. G. Jenkins, L. B. Rice, F. C. Tenover, and R. A. Bonomo. 2009. Characterization of blaKPC-containing Klebsiella pneumoniae isolates detected in different institutions in the Eastern USA. J Antimicrob Chemother 63:427-37).
(§2) Minimum inhibitory concentrations (MICs) were performed by microdilution method using cation-adjusted Mueller-Hinton broth, according to the Clinical and Laboratory Standards Institute (CLSI) criteria (see CLSI. 2006. Methods for dilution antimicrobial susceptibility tests for bacteria that grow aerobically; approved standard-Seventh edition. Clinical and Laboratory Standard Institute, Wayne, Pa. CLSI document M7-A7). These MIC assays were conducted following the same protocol as set forth in Example 110. […] The following ATCC control strains were used: Escherichia coli ATCC 25922, Pseudomonas aeruginosa ATCC 27853, and K. pneumoniae ATCC 700603.

[2] = test system: multidrug-resistant (MDR) K. pneumoniae isolates (n = 102); experiment: MIC by microdilution, clinical isolates; assay type: cell-based; conditions: for S (%), susceptible isolates: CLSI criteria, tigecycline US FDA criteria
Method: as §1, §2

E. coli ATCC 25922 = experiment: murine septicemia model of infection; assay type: in vivo; conditions: mice, single SC or IV dose 1 hour after IP challenge, mortality for 7 days; ED50 values are mg/kg
Method: (§3) Two models were run on each compound, using E. coli and P. aeruginosa QC bacterial strains. Both studies employed the same design. […] At 1 hour after bacterial challenge, the mice received a single SC or IV dose of vehicle or test substance to assess in vivo anti-infective activity. Mortality was recorded once daily for 7 days after bacterial inoculation.

P. aeruginosa ATCC 27853 = experiment: murine septicemia model of infection; assay type: in vivo; conditions: mice, single SC or IV dose 1 hour after IP challenge, mortality for 7 days; ED50 values are mg/kg
Method: as §3

[3] = test system: E. coli ATCC 25922 (AECO001); experiment: MIC assay, CLSI broth microdilution; assay type: cell-based; conditions: Escherichia coli
How it was run: (§4)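 Broth microdilution per CLSI M7-A7, with serial two-fold compound dilutions in Mueller Hinton Broth mixed 1:1 with inoculum. Colonies from a previous-day agar plate were suspended in saline to a final 5×10^5 CFU/mL. Plates were incubated 20 hours at 35° C. in ambient air.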

[4] = test system: P. aeruginosa ATCC 27853 (APAE001); experiment: MIC assay, CLSI broth microdilution; assay type: cell-based; conditions: Pseudomonas aeruginosa, ATCC27853, read-out: MIC APAE001
How it was run: as §4

[5] = K. pneumoniae producing KPC (n = 25)
[6] = Klebsiella pneumoniae, K. pneumoniae producing KPC (n = 25), read-out: MIC50
[7] = Klebsiella pneumoniae, K. pneumoniae producing KPC (n = 25), read-out: MIC90
[8] = Klebsiella pneumoniae, Total MDR K. pneumoniae isolates (n = 102), read-out: MIC50
[9] = Klebsiella pneumoniae, Total MDR K. pneumoniae isolates (n = 102), read-out: MIC90
[10] = Total MDR K. pneumoniae isolates (n = 102)
[11] = ATCC25922, read-out: MIC AECO001

NC[C@H]1O[C@H](O[C@H]2[C@H](O)[C@@H](O[C@H]3O[C@H](CO)[C@@H](O)[C@H](N)[C@H]3O)[C@H](N)C[C@@H]2N)[C@H](N)C[C@@H]1O [Tobramycin, tobramycin]
S (%), susceptible isolates [1, 5]: 8.0%
S (%), susceptible isolates ([1]; K. pneumoniae producing KPC (n = 25), listed as tobramycin): 8%
MIC50 [1, 6]: 32 µg/mL (≈ 68.4 µM)
MIC90 [1, 7]: ≥ 64 µg/mL
MIC50 [2, 8]: 32 µg/mL (≈ 68.4 µM)
MIC90 [2, 9]: ≥ 64 µg/mL
MIC90 [2, 10]: ≥64 µg/mL
S (%), susceptible isolates [2, 10]: 10.8%

NCC[C@H](O)C(=O)N[C@@H]1C[C@H](N)[C@@H](O[C@H]2O[C@H](CN)CC[C@H]2N)[C@H](O)[C@H]1O[C@H]1O[C@H](CO)[C@@H](O)[C@H](N)[C@H]1O [Arbekacin, arbekacin]
MIC50 [1, 6]: 8 µg/mL (≈ 14.5 µM)
MIC90 [1, 7]: 16 µg/mL (≈ 29 µM)
MIC ([1]; Klebsiella pneumoniae, all KPC-Kp strains, read-out: MICs of all strains): < 32 µg/mL
MIC50 [2, 8]: 4 µg/mL (≈ 7.24 µM)
MIC90 [2, 9]: 16 µg/mL (≈ 29 µM)

CN[C@@H]1[C@@H](O)[C@@H](O[C@@H]2[C@@H](O)[C@H](O[C@H]3OC(CNCC(O)CN)=CC[C@H]3N)[C@@H](N)C[C@H]2NC(=O)[C@@H](O)CN)OC[C@]1(C)O (stereo partly drawn) [Example 22, 6′-(3-Amino-2-hydroxy-propyl)-1-(3-amino-2(S)-hydroxy-propionyl)-sisomicin]
ED50/MIC E. Coli (E. coli ATCC 25922): 1
ED50/MIC P. aeruginosa (P. aeruginosa ATCC 27853): 8

C[C@@H](O)[C@H]1C(=O)N2C(C(=O)O)=C(SCCN=CN)C[C@H]12 [Imipenem, imipenem]
MIC ([3]; ATCC25922): 0.125 µg/mL (≈ 0.418 µM)
S (%), susceptible isolates [1, 5]: 12.0%
MIC50 [1, 6]: 8 µg/mL (≈ 26.7 µM)
MIC90 [1, 7]: > 16 µg/mL
MIC50 [2, 8]: 0.5 µg/mL (≈ 1.67 µM)
MIC90 [2, 9]: 8 µg/mL (≈ 26.7 µM)
S (%), susceptible isolates [2, 10]: 75.5%
S (%), susceptible isolates ([2]; Total MDR K. pneumoniae isolates (n = 102), listed as imipenem): approximately 75%

CN[C@@H]1[C@@H](O)[C@@H](O[C@@H]2[C@@H](O)[C@H](O[C@H]3OC(CNCCO)=CC[C@H]3N)[C@@H](N)C[C@H]2NC(=O)[C@@H](O)CN)OC[C@]1(C)O [Example 16, 6′-(2-Hydroxy-ethyl)-1-(3-amino-2(S)-hydroxy-propionyl)-sisomicin]
ED50/MIC E. Coli (E. coli ATCC 25922): 1
ED50/MIC P. aeruginosa (P. aeruginosa ATCC 27853): 3

CC(C)(O/N=C(\C(=O)N[C@@H]1C(=O)N2C(C(=O)[O-])=C(C[n+]3ccccc3)CS[C@H]12)c1csc(N)n1)C(=O)O [Ceftazidime, ceftazidime]
S (%), susceptible isolates [1, 5]: 0.0%
MIC50 [1, 6]: > 32 µg/mL
MIC90 [1, 7]: > 32 µg/mL
MIC50 [2, 8]: > 32 µg/mL
MIC90 [2, 9]: > 32 µg/mL
MIC90 [2, 10]: >32 µg/mL
S (%), susceptible isolates [2, 10]: 9.8%

CN[C@@H]1[C@@H](O)[C@@H](O[C@@H]2[C@@H](O)[C@H](O[C@H]3OC(CN)=CC[C@H]3NC(=N)N)[C@@H](N)C[C@H]2NC(=O)[C@@H](O)CCN)OC[C@]1(C)O [Example 103, 2′-Guanidinium-1-(4-amino-2(S)-hydroxy-butyryl)-sisomicin]
ED50/MIC E. Coli (E. coli ATCC 25922): 2
ED50/MIC P. aeruginosa (P. aeruginosa ATCC 27853): 6

CN[C@@H]1[C@@H](O)[C@@H](O[C@@H]2[C@@H](O)[C@H](O[C@H]3OC(CNCCCN)=CC[C@H]3N)[C@@H](N)C[C@H]2NC(=O)C2(O)CNC2)OC[C@]1(C)O [Example 57]
ED50/MIC E. Coli (E. coli ATCC 25922): 2
ED50/MIC P. aeruginosa (P. aeruginosa ATCC 27853): 14

CN[C@@H]1[C@@H](O)[C@@H](O[C@@H]2[C@@H](O)[C@H](O[C@H]3OC(CNCCCN)=CC[C@H]3N)[C@@H](N)C[C@H]2NC(=O)[C@H](O)CN)OC[C@]1(C)O [Example 11, 6′-(3-Amino-propyl)-1-(3-amino-2(R)-hydroxy-propionyl)-sisomicin]
MIC [3, 11]: < 1 µg/mL
MIC [4]: 1 to 16 µg/mL (≈ 1.69 to 27 µM)

CN[C@@H]1[C@@H](O)[C@@H](O[C@@H]2[C@@H](O)[C@H](O[C@H]3OC(CNC(=O)C(O)CN)=CC[C@H]3N)[C@@H](N)C[C@H]2NC(=O)[C@@H](O)CN)OC[C@]1(C)O (stereo partly drawn) [Example 20, 6′-(3-Amino-2-hydroxy-propionyl)-1-(3-amino-2(S)-hydroxy-propionyl)-sisomicin]
MIC [3, 11]: > 16 µg/mL
MIC [4]: > 16 µg/mL

CN[C@@H]1[C@@H](O)[C@@H](O[C@@H]2[C@@H](O)[C@H](O[C@H]3OC(CN)=CC[C@H]3NCC3CCCN3)[C@@H](N)C[C@H]2NC(=O)[C@@H](O)CCN)OC[C@]1(C)O (stereo partly drawn) [Example 85, 2′-(Methyl-pyrrolidin-2-yl)-1-(4-amino-2(S)-hydroxy-butyryl)-sisomicin]
MIC [3, 11]: < 1 µg/mL
MIC [4]: 1 to 16 µg/mL (≈ 1.58 to 25.3 µM)

CN[C@@H]1[C@@H](O)[C@@H](O[C@@H]2[C@@H](O)[C@H](O[C@H]3OC(CNCCCCCN)=CC[C@H]3N)[C@@H](N)C[C@H]2NC(=O)[C@@H](O)CCN)OC[C@]1(C)O [Example 44, 6′-(5-Amino-pentyl)-1-(4-amino-2(S)-hydroxy-butyryl)-sisomicin]
MIC [3, 11]: < 1 µg/mL
MIC [4]: 1 to 16 µg/mL (≈ 1.58 to 25.2 µM)

CN[C@@H]1[C@@H](O)[C@@H](O[C@@H]2[C@@H](O)[C@H](O[C@H]3OC(CNCC4CCNCC4)=CC[C@H]3N)[C@@H](N)C[C@H]2NC(=O)[C@H](O)CN)OC[C@]1(C)O [Example 8, 6′-Methyl-piperidinyl-1-(3-amino-2(R)-hydroxy-propionyl)-sisomicin]
MIC [3, 11]: < 1 µg/mL
MIC [4]: 1 to 16 µg/mL (≈ 1.58 to 25.3 µM)

CN[C@@H]1[C@@H](O)[C@@H](O[C@@H]2[C@@H](O)[C@H](O[C@H]3OC(CNC[C@@H]4C[C@H](N)CN4)=CC[C@H]3N)[C@@H](N)C[C@H]2NC(=O)[C@@H](O)CN)OC[C@]1(C)O [Example 65, 6′-(Methyl-4(S)-amino-pyrrolidin-2(S)-yl)-1-(3-amino-2(S)-hydroxy-propionyl)-sisomicin]
MIC [3, 11]: 1 to 16 µg/mL (≈ 1.58 to 25.3 µM)
MIC [4]: 1 to 16 µg/mL (≈ 1.58 to 25.3 µM)

CN[C@@H]1[C@@H](O)[C@@H](O[C@@H]2[C@@H](O)[C@H](O[C@H]3OC(CNC[C@H](O)C(=O)O)=CC[C@H]3N)[C@@H](N)C[C@H]2NC(=O)[C@@H](O)CCN)OC[C@]1(C)O [Example 50, 6′-(2(S)-Hydroxy-3-propanoic)-1-(4-amino-2(S)-hydroxy-butyryl)-sisomicin]
MIC [3, 11]: > 16 µg/mL
MIC [4]: > 16 µg/mL

CN(C)c1cc(NC(=O)CNC(C)(C)C)c(O)c2c1C[C@H]1C[C@H]3[C@H](N(C)C)C(O)=C(C(N)=O)C(=O)[C@@]3(O)C(O)=C1C2=O [Tigecycline, tigecycline]
S (%), susceptible isolates [1, 5]: 96.0%
MIC50 ([1]; Klebsiella pneumoniae): 1 µg/mL (≈ 1.71 µM)
MIC90 ([1]; Klebsiella pneumoniae): 2 µg/mL (≈ 3.41 µM)
MIC50 ([2]; Klebsiella pneumoniae): 1 µg/mL (≈ 1.71 µM)
MIC90 ([2]; Klebsiella pneumoniae): 2 µg/mL (≈ 3.41 µM)
S (%), susceptible isolates [2, 10]: 90.2%
S (%), susceptible isolates ([2]; Total MDR K. pneumoniae isolates (n = 102), listed as tigecycline): ~90%

CN[C@@H]1[C@@H](O)[C@@H](O[C@@H]2[C@@H](O)[C@H](O[C@H]3OC(CNC[C@H]4C[C@H](N)C4)=CC[C@H]3N)[C@@H](N)C[C@H]2NC(=O)C2(O)CC(N)C2)OC[C@]1(C)O (some centres unmarked) [Example 60]
MIC [3, 11]: < 1 µg/mL
MIC [4]: 1 to 16 µg/mL (≈ 1.55 to 24.9 µM)

CN[C@@H]1[C@@H](O)[C@@H](O[C@@H]2[C@@H](O)[C@H](O[C@H]3OC(CNCCNC4CNC4)=CC[C@H]3N)[C@@H](N)C[C@H]2NC(=O)[C@@H](O)CN)OC[C@]1(C)O [Example 81, 6′-(N-(Azetidin-3-yl)-2-amino-ethyl)-1-(3-amino-2(S)-hydroxy-propionyl)-sisomicin]
MIC [3, 11]: 1 to 16 µg/mL (≈ 1.58 to 25.3 µM)
MIC [4]: > 16 µg/mL

CN[C@@H]1[C@@H](O)[C@@H](O[C@@H]2[C@@H](O)[C@H](O[C@H]3OC(CNCC(O)C(N)=O)=CC[C@H]3N)[C@@H](N)C[C@H]2NC(=O)[C@@H](O)CN)OC[C@]1(C)O (stereo partly drawn) [Example 21, 6′-(2-Hydroxy-3-propionamide)-1-(3-amino-2(S)-hydroxy-propionyl)-sisomicin]
MIC [3, 11]: 1 to 16 µg/mL (≈ 1.61 to 25.7 µM)
MIC [4]: 1 to 16 µg/mL (≈ 1.61 to 25.7 µM)

CN[C@@H]1[C@@H](O)[C@@H](O[C@@H]2[C@@H](O)[C@H](O[C@H]3OC(CN)=CC[C@H]3NC3CNC3)[C@@H](N)C[C@H]2NC(=O)[C@@H](O)CCN)OC[C@]1(C)O [Example 96, 2′-(Azetidin-3-yl)-1-(4-amino-2(S)-hydroxy-butyryl)-sisomicin]
ED50/MIC E. Coli (E. coli ATCC 25922): <1
ED50/MIC P. aeruginosa (P. aeruginosa ATCC 27853): 3
